Read-outs that look alike come from different tables or passages of the source.
Experiments:
[1] = system: asynchronous 3D7-A10 parasite cultures; experiment: Standard 72-h exposure asexual blood stage susceptibility assay (IC50^72h); type: cell-based, Plasmodium falciparum; conditions: Plasmodium falciparum, 3D7, 72 h, read-out: Overall (72hr assay) Mean IC50 (IC50^72h)
[2] = system: 3D7-MR4 trophozoite parasite-infected RBCs; experiment: Metabolomic profiling (hydrophilic metabolite changes, UHPLC-MS); type: cell-based, Plasmodium falciparum
[3] = system: Plasmodium falciparum 3D7-A10 parasites; experiment: Stage specificity assay (8-h exposure of synchronized stages, IC50^8h); type: cell-based; conditions: Plasmodium falciparum

O=C(Nc1ccc(N2CCNCC2)cc1)c1ccn2ncc(-c3cccc(Cl)c3)c2n1.O=C(O)C(F)(F)F [MMV022478]
IC50 [1]: 0.0111 µM | peptide levels (hemoglobin catabolism signature) ([2]; 10 × IC50^72h, 2.5 hr, trophozoites): decreased peptide levels | Log2(fold changes) 3-phosphoglycerate ([2]; metabolite 3-phosphoglycerate, log2 fold change): -0.2221 | Log2(fold changes) 4-Pyridoxic acid ([2]; metabolite 4-Pyridoxic acid, log2 fold change): 0.0000 | Log2(fold changes) 4-aminobutyrate ([2]; metabolite 4-aminobutyrate, log2 fold change): -1.1535 | Log2(fold changes) 4-phosphopantetheine ([2]; metabolite 4-phosphopantetheine, log2 fold change): 0.0000 | Log2(fold changes) 4-phosphopantothenate ([2]; metabolite 4-phosphopantothenate, log2 fold change): -2.5840 | Log2(fold changes) 5-aminopentanoic acid ([2]; metabolite 5-aminopentanoic acid, log2 fold change): 0.0000 | Log2(fold changes) 5-methyl-THF ([2]; metabolite 5-methyl-THF, log2 fold change): 0.0000 | Log2(fold changes) 5-phosphoribosyl-1-pyrophosphate ([2]; metabolite 5-phosphoribosyl-1-pyrophosphate, log2 fold change): -3.8277 | Log2(fold changes) 6-phospho-D-gluconate ([2]; metabolite 6-phospho-D-gluconate, log2 fold change): -1.2363 | Log2(fold change) HVDD ([2]; metabolite HVDD): -6.0354 | Log2(fold change) Hydroxyisocaproic acid ([2]; metabolite Hydroxyisocaproic acid): 0.0000 | Log2(fold change) IDP ([2]; metabolite IDP): 0.0000 | Log2(fold change) IMP ([2]; metabolite IMP): -1.9723 | Log2(fold change) Inositol ([2]; metabolite Inositol): 0.0000 | Log2(fold change) Isopentyl-PP ([2]; metabolite Isopentyl-PP): 0.0000 | Log2(fold change) L-arginino-succinate ([2]; metabolite L-arginino-succinate): 0.0000 | Log2(fold change) LD ([2]; metabolite LD): 0.0000 | Log2(fold change) Myristoyl/tetradecanoyl-CoA ([2]; metabolite Myristoyl/tetradecanoyl-CoA): 0.0000 | Log2(fold change) N-Acetyl-L-alanine ([2]; metabolite N-Acetyl-L-alanine): -4.1046 | Log2(fold change) N-acetyl-L-ornithine ([2]; metabolite N-acetyl-L-ornithine): -4.9077 | Log2(fold change) N-acetyl-glucosamine-1/6-phosphate ([2]; metabolite N-acetyl-glucosamine-1/6-phosphate): -2.7078 | Log2(fold change) N-acetyl-glutamate ([2]; metabolite N-acetyl-glutamate): -2.2943 | Log2(fold change) N-acetyl-glutamine ([2]; metabolite N-acetyl-glutamine): 0.0000 | Log2(fold change) N-carbamoyl-L-aspartate ([2]; metabolite N-carbamoyl-L-aspartate): -4.4049 | Log2(fold change) NAD+ ([2]; metabolite NAD+): 0.0000 | Log2(fold change) NADH ([2]; metabolite NADH): 0.4682 | Log2(fold change) NADP+ ([2]; metabolite NADP+): -1.0797 | Log2(fold change) NADPH ([2]; metabolite NADPH): -1.0955 | Log2(fold change) O-acetyl-L-serine ([2]; metabolite O-acetyl-L-serine): 0.0000 | Log2(fold change) Octoluse 8/1P ([2]; metabolite Octoluse 8/1P): 0.0000 | Log2(fold change) Octoluse Bisphosphate ([2]; metabolite Octoluse Bisphosphate): -0.1243 | Log2(fold change) PD ([2]; metabolite PD): -4.6260 | Log2(fold change) PE ([2]; metabolite PE): -5.1379 | Log2(fold change) PEE ([2]; metabolite PEE): -4.6436 | Log2(fold change) PEEK ([2]; metabolite PEEK): 0.0000 | Log2(fold change) PVNF ([2]; metabolite PVNF): -7.1540 | Log2(fold change) Pyroglutamic acid ([2]; metabolite Pyroglutamic acid): 0.0000 | Log2(fold change) Pyrophosphate ([2]; metabolite Pyrophosphate): 0.0000 | Log2(fold change) Ribose-5-phosphate ([2]; metabolite Ribose-5-phosphate): -2.7334 | Log2(fold change) S-adenosyl-L-homocysteine ([2]; metabolite S-adenosyl-L-homocysteine): -2.8781 | Log2(fold change) S-adenosyl-L-methioninamine ([2]; metabolite S-adenosyl-L-methioninamine): 0.0000 | Log2(fold change) S-adenosyl-L-methionine ([2]; metabolite S-adenosyl-L-methionine): 0.0000 | Log2(fold change) S-methyl-5'-thioadenosine ([2]; metabolite S-methyl-5'-thioadenosine): 0.0000 | Log2(fold change) SD ([2]; metabolite SD): -2.2622 | Log2(fold change) SDL ([2]; metabolite SDL): 0.0000 | Log2(fold change) SID ([2]; metabolite SID): -5.7557 | Log2(fold change) Sedoheptulose bisphosphate ([2]; metabolite Sedoheptulose bisphosphate): -0.2613 | Log2(fold change) Thiamine pyrophosphate ([2]; metabolite Thiamine pyrophosphate): 0.0000 | Log2(fold changes) UDP-D-glucose ([2]; metabolite UDP-D-glucose, log2 fold change): -0.2797 | Log2(fold changes) UDP-D-glucuronate ([2]; metabolite UDP-D-glucuronate, log2 fold change): -0.6750 | Log2(fold changes) UDP-N-acetyl-glucosamine ([2]; metabolite UDP-N-acetyl-glucosamine, log2 fold change): -0.7739 | Log2(fold changes) UDP ([2]; metabolite UDP, log2 fold change): -2.1596 | Log2(fold changes) UMP ([2]; metabolite UMP, log2 fold change): -1.4504 | Log2(fold changes) UTP ([2]; metabolite UTP, log2 fold change): -1.2572 | Log2(fold change) hydroxyphenylpyruvate ([2]; metabolite hydroxyphenylpyruvate): 0.0000 | Log2(fold change) hydroxyproline/Aminolevulinate ([2]; metabolite hydroxyproline/Aminolevulinate): -0.1426 | Log2(fold change) hypoxanthine ([2]; metabolite hypoxanthine): 0.3419 | Log2(fold change) indole ([2]; metabolite indole): 0.0000 | Log2(fold change) inosine ([2]; metabolite inosine): -0.5164 | Log2(fold change) isoleucine ([2]; metabolite isoleucine): 0.2629 | Log2(fold change) lactate ([2]; metabolite lactate): -0.9550 | Log2(fold change) leucine ([2]; metabolite leucine): 0.0229 | Log2(fold change) lysine ([2]; metabolite lysine): 0.0000 | Log2(fold change) malate ([2]; metabolite malate): -1.9880 | Log2(fold change) maleic acid ([2]; metabolite maleic acid): -2.0576 | Log2(fold change) methionine ([2]; metabolite methionine): 0.4668 | Log2(fold change) myo-inositol ([2]; metabolite myo-inositol): 0.0000 | Log2(fold change) nicotinamide mononucleotide ([2]; metabolite nicotinamide mononucleotide): 0.0000 | Log2(fold change) nicotinate ([2]; metabolite nicotinate): -0.5789 | Log2(fold change) ornithine ([2]; metabolite ornithine): 0.0000 | Log2(fold change) orotate ([2]; metabolite orotate): -1.4233 | Log2(fold change) orotidine-5'-phosphate ([2]; metabolite orotidine-5'-phosphate): -3.1182 | Log2(fold change) oxaloacetate ([2]; metabolite oxaloacetate): 0.0000 | Log2(fold change) p-aminobenzoate ([2]; metabolite p-aminobenzoate): 0.0000 | Log2(fold change) p-hydroxybenzoate ([2]; metabolite p-hydroxybenzoate): 0.0000 | Log2(fold change) pantothenate ([2]; metabolite pantothenate): -0.7783 | Log2(fold change) phenylalanine ([2]; metabolite phenylalanine): -0.1127 | Log2(fold change) phenylpyruvate ([2]; metabolite phenylpyruvate): 0.0000 | Log2(fold change) phosphoenolpyruvate ([2]; metabolite phosphoenolpyruvate): 0.1262 | Log2(fold change) prephenate ([2]; metabolite prephenate): 0.0000 | Log2(fold change) proline ([2]; metabolite proline): -0.3073 | Log2(fold change) pyridoxine ([2]; metabolite pyridoxine): 0.2157 | Log2(fold change) pyruvate ([2]; metabolite pyruvate): -1.6686 | Log2(fold change) riboflavin ([2]; metabolite riboflavin): 0.0000 | Log2(fold change) ribose ([2]; metabolite ribose): 0.4922 | Log2(fold change) ribose-phosphate ([2]; metabolite ribose-phosphate): -2.5305 | Log2(fold change) ribulose-5-phosphate ([2]; metabolite ribulose-5-phosphate): -2.3648 | Log2(fold change) serine ([2]; metabolite serine): -0.3911 | Log2(fold change) sn-glycerol-3-phosphate ([2]; metabolite sn-glycerol-3-phosphate): -0.4279 | Log2(fold change) succinate/Methylmalonic acid ([2]; metabolite succinate/Methylmalonic acid): -3.0813 | Log2(fold change) succinyl-CoA/methylmalonyl-CoA ([2]; metabolite succinyl-CoA/methylmalonyl-CoA): -1.6128 | Log2(fold change) taurine ([2]; metabolite taurine): 0.0000 | Log2(fold change) thiamine ([2]; metabolite thiamine): 0.0000 | Log2(fold change) threonine/homoserine ([2]; metabolite threonine/homoserine): -0.6870 | Log2(fold change) thymidine ([2]; metabolite thymidine): 0.0000 | Log2(fold changes) thymine ([2]; metabolite thymine, log2 fold change): 0.0000 | Log2(fold changes) trehalose-6-Phosphate ([2]; metabolite trehalose-6-Phosphate, log2 fold change): 0.0000 | Log2(fold changes) tryptophan ([2]; metabolite tryptophan, log2 fold change): 0.1771 | Log2(fold changes) tyrosine ([2]; metabolite tyrosine, log2 fold change): -0.0043 | Log2(fold changes) uridine ([2]; metabolite uridine, log2 fold change): 0.0000 | IC50 ([3]; 3D7, 8 h, read-out: IC50^8h values at all tested stages, 8-h exposures, all asexual blood stages): > 1 µM | IC50 ([3]; 3D7, read-out: Early rings Mean IC50 (IC50^8h), 8-h exposure 0–8 hr, 3D7-A10, survival at 60 h): 7.63 µM | IC50 ([3]; 3D7, read-out: Early trophozoites Mean IC50 (IC50^8h), 8-h exposure 16–24 hr, 3D7-A10, survival at 60 h): 2.13 µM | IC50 ([3]; 3D7, read-out: Late rings Mean IC50 (IC50^8h), 8-h exposure 8–16 hr, 3D7-A10, survival at 60 h): 4.87 µM | IC50 ([3]; 3D7, read-out: Late trophozoites Mean IC50 (IC50^8h), 8-h exposure 24–32 hr, 3D7-A10, survival at 60 h): 2.53 µM | IC50 ([3]; 3D7, read-out: Schizonts Mean IC50 (IC50^8h), 8-h exposure 32–40 hr, 3D7-A10, survival at 60 h): 3.37 µM

Reference: paper PMC7031696 (Cell chemical biology, 2019)
